Measured values: publication PMC5869712 (Scientific Reports, 2018)
Like-named read-outs stand apart in the source and are kept apart here.

Experiments:
[1] = test system: IFN-γ-induced JAK/STAT1 phosphorylation in U2OS cells (JAK1/JAK2); experiment: STAT1 phosphorylation induced by IFN-γ in U2OS cells, Western blot; conditions: for IC50: Homo sapiens
[2] = test system: IL-4-induced JAK/STAT6 phosphorylation in THP-1 cells (JAK1/JAK3); experiment: STAT6 phosphorylation induced by IL-4 in THP-1 cells, Western blot; conditions: for IC50: Homo sapiens
[3] = test system: Th1, Th17 and Treg cells of CIA mice; experiment: Flow cytometry analysis of Th1, Th17 and Treg in CIA mice; assay type: in vivo, mouse; conditions: 100 mg/kg
Protocol: On day 32 after the indicated treatments, mice were sacrificed to obtain cells from the spleen. Then, the cells were incubated with the corresponding antibodies to detect Th1, Th17 cells and Treg cells. CD4^+ IFN-γ^+ represents Th1 cells, CD4^+ IL-17^+ represents Th17 cells in […]. CD4^+ Foxp3^+ represents Treg cells. The analyses of cells were performed as described above.

[4] = test system: G-CSF-induced JAK/STAT3 phosphorylation in HEL cells (JAK1/JAK2); experiment: STAT3 phosphorylation induced by G-CSF in HEL cells, Western blot; conditions: for IC50: Homo sapiens
[5] = test system: GM-CSF-induced STAT5 phosphorylation (JAK2); experiment: GM-CSF-induced pSTAT5 in total lymphocytes in hPBMCs, flow cytometry; assay type: cell-based; conditions: Homo sapiens, Lymphocyte, hPBMC total lymphocytes, trigger GM-CSF, readout pSTAT5
ERBB2 = target: T1, ERBB2 (Homo sapiens, UniProt P04626); experiment: Cys-containing kinase family panel (EurofinsCerep); assay type: biochemical
T1 construct: EurofinsCerep (contract assay service)
T1 sequence (P04626 23-1255): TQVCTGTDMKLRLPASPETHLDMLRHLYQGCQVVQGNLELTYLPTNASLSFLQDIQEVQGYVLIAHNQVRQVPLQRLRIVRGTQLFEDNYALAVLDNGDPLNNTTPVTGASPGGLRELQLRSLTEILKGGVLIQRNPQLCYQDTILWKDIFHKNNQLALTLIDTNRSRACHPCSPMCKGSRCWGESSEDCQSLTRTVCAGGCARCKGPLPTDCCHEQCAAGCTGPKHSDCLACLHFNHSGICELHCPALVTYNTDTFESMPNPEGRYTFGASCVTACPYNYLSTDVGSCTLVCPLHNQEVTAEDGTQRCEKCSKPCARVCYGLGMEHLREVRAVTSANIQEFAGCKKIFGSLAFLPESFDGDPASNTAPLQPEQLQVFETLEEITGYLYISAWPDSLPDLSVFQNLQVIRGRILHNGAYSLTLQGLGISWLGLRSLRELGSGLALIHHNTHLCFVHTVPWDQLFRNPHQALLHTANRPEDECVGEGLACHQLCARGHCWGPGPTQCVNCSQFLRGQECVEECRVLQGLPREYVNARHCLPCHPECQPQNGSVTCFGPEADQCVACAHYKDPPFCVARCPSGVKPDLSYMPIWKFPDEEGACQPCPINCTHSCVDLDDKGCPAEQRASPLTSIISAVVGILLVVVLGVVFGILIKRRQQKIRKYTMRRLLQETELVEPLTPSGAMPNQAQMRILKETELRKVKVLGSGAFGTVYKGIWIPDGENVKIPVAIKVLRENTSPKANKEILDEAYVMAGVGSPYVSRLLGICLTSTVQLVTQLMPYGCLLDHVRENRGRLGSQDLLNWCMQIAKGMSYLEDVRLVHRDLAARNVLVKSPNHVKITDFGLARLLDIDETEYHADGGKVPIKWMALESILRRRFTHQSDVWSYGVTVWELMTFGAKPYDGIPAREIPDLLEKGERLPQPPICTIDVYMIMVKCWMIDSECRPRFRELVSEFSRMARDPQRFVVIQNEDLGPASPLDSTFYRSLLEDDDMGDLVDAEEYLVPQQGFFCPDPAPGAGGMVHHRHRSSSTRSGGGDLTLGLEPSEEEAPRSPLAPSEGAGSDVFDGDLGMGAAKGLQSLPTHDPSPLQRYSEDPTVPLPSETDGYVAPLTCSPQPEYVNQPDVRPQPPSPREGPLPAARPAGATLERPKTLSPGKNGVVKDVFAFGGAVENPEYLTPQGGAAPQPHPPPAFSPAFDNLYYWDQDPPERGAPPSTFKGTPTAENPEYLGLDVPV

KDR = target: T2, KDR (Homo sapiens, UniProt P35968); experiment: Eurofins Kinase Profiler panel; assay type: biochemical; conditions: read-out: % inhibition (1μM), DMSO control=100%, lower=stronger
T2 construct: purchased Eurofins KinaseProfiler (Eurofins Pharma Discovery Services UK, Dundee); JAK3 also ChemPartner

[6] = test system: JAK-STAT pathway in joints of CIA mice; experiment: JAK/STAT phosphorylation in joint tissue of CIA mice, Western blot; assay type: in vivo, mouse; conditions: dose-dependent
Source text: Proteins were visualized with enhanced chemiluminescence.

MKK6 = target: T3, MKK6 (Homo sapiens, UniProt P52564); experiment: Eurofins Kinase Profiler panel; assay type: biochemical; conditions: read-out: % inhibition (1μM), DMSO control=100%, lower=stronger
T3 construct: Eurofins Pharma Discovery Services UK Limited (Kinase Profiler service)
T3 sequence (P52564 whole entry): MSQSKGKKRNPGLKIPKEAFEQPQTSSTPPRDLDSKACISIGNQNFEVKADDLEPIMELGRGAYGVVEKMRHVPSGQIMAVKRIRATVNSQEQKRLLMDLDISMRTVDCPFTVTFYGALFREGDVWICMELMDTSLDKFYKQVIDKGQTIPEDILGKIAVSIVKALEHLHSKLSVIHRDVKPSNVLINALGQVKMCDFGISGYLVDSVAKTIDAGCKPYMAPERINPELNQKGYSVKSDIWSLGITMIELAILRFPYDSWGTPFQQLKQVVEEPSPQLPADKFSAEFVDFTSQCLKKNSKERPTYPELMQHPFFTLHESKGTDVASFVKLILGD

MKK7β = target: T4, MKK7β (Homo sapiens, UniProt O14733); experiment: Eurofins Kinase Profiler panel; assay type: biochemical
T4 construct: Eurofins Pharma Discovery Services UK Limited (Kinase Profiler service)
T4 sequence (O14733 whole entry): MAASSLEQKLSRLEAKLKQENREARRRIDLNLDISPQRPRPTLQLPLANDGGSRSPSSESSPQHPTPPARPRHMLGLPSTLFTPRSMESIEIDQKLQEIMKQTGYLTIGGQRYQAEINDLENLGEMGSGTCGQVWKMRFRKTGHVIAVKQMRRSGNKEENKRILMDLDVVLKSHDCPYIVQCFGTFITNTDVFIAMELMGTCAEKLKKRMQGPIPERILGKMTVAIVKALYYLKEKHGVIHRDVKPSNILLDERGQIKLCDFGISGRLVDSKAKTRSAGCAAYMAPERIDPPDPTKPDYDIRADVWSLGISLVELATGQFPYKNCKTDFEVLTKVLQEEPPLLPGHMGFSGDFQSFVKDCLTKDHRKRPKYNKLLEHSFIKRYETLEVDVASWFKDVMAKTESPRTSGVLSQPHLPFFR

IKKβ = target: T5, IKKβ (Homo sapiens, UniProt O14920); experiment: Eurofins Kinase Profiler panel; assay type: biochemical; conditions: read-out: % inhibition (1μM), DMSO control=100%, lower=stronger
T5 construct: purchased Eurofins KinaseProfiler (Eurofins Pharma Discovery Services UK, Dundee); JAK3 also ChemPartner
T5 sequence (O14920 whole entry): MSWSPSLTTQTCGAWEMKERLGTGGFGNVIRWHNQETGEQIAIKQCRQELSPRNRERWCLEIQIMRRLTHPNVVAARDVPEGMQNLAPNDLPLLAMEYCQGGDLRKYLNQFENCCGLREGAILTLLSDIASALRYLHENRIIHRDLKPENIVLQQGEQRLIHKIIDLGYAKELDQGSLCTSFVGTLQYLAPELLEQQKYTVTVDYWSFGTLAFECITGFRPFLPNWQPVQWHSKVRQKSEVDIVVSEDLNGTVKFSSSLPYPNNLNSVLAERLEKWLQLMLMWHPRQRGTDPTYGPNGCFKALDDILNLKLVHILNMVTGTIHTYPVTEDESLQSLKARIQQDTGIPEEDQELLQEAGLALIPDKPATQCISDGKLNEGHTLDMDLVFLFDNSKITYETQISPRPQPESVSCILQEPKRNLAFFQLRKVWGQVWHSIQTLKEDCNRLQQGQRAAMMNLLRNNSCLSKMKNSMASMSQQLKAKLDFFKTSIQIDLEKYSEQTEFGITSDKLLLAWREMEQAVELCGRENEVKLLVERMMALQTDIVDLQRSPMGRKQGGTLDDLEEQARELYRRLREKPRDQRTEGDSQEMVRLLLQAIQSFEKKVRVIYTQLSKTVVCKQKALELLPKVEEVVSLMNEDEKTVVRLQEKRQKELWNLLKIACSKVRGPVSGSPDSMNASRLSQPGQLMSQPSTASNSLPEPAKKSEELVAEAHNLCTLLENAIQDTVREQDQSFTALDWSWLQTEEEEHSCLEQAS

Fyn = target: T6, Fyn (Homo sapiens, UniProt P06241); experiment: Eurofins Kinase Profiler panel; assay type: biochemical; conditions: read-out: % inhibition (1μM), DMSO control=100%, lower=stronger
T6 construct: purchased Eurofins Pharma Discovery Services UK Limited (Kinase Profiler screening platform)
T6 sequence (P06241 whole entry): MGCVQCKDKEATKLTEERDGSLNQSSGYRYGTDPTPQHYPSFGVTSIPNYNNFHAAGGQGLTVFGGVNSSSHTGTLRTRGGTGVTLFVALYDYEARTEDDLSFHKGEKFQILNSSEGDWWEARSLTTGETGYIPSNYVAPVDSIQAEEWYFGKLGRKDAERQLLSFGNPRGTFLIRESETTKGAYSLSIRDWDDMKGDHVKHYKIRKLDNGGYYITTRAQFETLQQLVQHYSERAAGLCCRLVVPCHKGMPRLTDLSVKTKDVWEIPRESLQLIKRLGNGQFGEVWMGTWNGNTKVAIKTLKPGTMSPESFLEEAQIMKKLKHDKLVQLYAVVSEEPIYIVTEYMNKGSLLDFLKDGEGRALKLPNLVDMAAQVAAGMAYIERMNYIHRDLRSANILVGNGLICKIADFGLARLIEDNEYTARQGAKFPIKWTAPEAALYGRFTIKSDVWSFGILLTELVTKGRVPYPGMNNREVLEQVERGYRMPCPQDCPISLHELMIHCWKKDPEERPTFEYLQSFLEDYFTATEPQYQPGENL

CDK1 = target: T7, CDK1 (Homo sapiens, UniProt P06493); experiment: Eurofins Kinase Profiler panel; assay type: biochemical; conditions: read-out: % inhibition (1μM), DMSO control=100%, lower=stronger
T7 construct: purchased Eurofins KinaseProfiler (Eurofins Pharma Discovery Services UK, Dundee); JAK3 also ChemPartner
T7 sequence (P06493 whole entry): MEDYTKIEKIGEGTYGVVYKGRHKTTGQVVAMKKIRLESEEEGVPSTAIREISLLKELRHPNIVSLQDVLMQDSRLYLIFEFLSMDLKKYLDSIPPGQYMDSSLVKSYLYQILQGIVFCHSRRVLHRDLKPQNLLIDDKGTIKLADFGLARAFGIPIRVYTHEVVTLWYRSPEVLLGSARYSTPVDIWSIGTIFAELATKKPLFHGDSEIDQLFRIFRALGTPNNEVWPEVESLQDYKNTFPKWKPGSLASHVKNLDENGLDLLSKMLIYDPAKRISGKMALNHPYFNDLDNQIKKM
T7 sequence (P14635 whole entry partner): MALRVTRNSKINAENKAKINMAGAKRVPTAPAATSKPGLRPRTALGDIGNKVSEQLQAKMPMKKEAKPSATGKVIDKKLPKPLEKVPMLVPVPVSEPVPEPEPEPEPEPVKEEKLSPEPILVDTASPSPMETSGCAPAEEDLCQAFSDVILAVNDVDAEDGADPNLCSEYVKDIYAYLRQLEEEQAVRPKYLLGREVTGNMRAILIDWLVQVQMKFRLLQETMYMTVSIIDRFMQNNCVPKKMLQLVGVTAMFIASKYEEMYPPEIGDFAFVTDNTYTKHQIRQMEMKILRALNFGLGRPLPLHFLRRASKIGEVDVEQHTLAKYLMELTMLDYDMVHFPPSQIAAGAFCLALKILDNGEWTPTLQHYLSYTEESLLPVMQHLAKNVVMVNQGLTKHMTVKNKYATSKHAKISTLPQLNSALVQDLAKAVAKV

[7] = test system: IL-6-induced STAT3 phosphorylation (JAK1); experiment: IL-6-induced pSTAT3 in total lymphocytes in hPBMCs, flow cytometry; assay type: cell-based, human
CDK2 = target: T8, CDK2 (Homo sapiens, UniProt P24941); experiment: Eurofins Kinase Profiler panel; assay type: biochemical; conditions: read-out: % inhibition (1μM), DMSO control=100%, lower=stronger
T8 construct: purchased Eurofins KinaseProfiler (Eurofins Pharma Discovery Services UK, Dundee); JAK3 also ChemPartner

MST1 = target: T9, MST1 (Homo sapiens, UniProt Q13043); experiment: Eurofins Kinase Profiler panel; assay type: biochemical; conditions: read-out: % inhibition (1μM), DMSO control=100%, lower=stronger
T9 construct: purchased Eurofins Pharma Discovery Services UK Limited (Kinase Profiler screening platform)
T9 sequence (Q13043 whole entry): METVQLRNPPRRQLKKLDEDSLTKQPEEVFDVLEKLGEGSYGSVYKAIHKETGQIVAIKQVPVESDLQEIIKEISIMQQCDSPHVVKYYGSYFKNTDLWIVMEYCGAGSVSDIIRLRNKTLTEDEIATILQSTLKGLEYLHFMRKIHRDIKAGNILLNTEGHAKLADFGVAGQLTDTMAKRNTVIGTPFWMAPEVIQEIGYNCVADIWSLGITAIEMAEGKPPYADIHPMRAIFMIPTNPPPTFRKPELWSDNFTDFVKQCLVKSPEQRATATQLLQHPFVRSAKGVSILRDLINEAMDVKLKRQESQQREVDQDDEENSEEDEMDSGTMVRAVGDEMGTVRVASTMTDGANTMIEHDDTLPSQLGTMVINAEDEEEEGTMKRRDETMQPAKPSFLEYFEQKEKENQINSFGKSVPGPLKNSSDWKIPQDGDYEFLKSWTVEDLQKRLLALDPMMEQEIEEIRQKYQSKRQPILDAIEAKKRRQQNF

MAPK1 = target: T10, MAPK1 (Homo sapiens, UniProt P27361); experiment: Eurofins Kinase Profiler panel; assay type: biochemical; conditions: read-out: % inhibition (1μM), DMSO control=100%, lower=stronger
T10 construct: purchased Eurofins KinaseProfiler (Eurofins Pharma Discovery Services UK, Dundee); JAK3 also ChemPartner
T10 sequence (P27361 whole entry): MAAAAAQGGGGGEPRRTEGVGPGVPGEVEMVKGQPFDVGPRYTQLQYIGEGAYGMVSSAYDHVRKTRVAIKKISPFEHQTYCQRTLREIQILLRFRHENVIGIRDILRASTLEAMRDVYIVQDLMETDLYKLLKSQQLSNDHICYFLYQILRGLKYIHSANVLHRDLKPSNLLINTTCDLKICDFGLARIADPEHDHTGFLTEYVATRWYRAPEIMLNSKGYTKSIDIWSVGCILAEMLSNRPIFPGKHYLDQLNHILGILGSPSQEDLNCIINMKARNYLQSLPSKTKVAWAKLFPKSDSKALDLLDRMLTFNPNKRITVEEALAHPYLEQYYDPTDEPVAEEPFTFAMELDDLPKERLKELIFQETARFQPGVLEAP

[8] = test system: DBA/1 mice with collagen-induced arthritis; experiment: Collagen-induced arthritis mouse model: clinical score, histology, safety; assay type: in vivo; conditions: CIA mice; for group mean histological severity score: model group 3.8, grades 0-4
Protocol: The animal protocol was approved by the Animal Care and Use Committee of Sichuan University in China (IACUC number: 20100318). DBA/1 J mice (male, 6 weeks old) were obtained from Jackson Laboratory (Bar Harbor, ME). One day before the start of the experiment, CII solution (2 mg/ml) was prepared with 0.05 M acetic acid and stored at 4 °C. Just before the immunization, equal volumes of IFA and CII were mixed by a homogenizer in a precooled glass bottle in an ice water bath. Arthritis was induced in 8-week old male DBA/1 mice by immunizations with a 1:1 emulsion of bovine type II collagen (Chondrex) and Freund’s complete adjuvant (Sigma-Aldrich) on day 0 and with a 1:1 emulsion of bovine type II collagen in Freund’s incomplete adjuvant (Sigma-Aldrich) on day 21. […] On the day treatment was initiated, the mice were randomly assigned to controls (no collagen injection plus vehicle; […]. Mice were scored daily for signs of arthritis for 33 days. CIA development was inspected three times per week, and the inflammation of the four paws was graded from 0 to 4 (grade 0, paws with no swelling or focal redness; grade 1, paws with swelling of finger joints; grade 2, paws with a mild swelling of the ankle or wrist joints; grade 3, paws with severe inflammation of the entire paw; and grade 4, paws with deformity or ankylosis). Each paw was graded, and the four scores were totalled so that the possible maximum score per mouse was 16.
DBA1/J mice were sacrificed on day 33 after treatment and ankle joints were removed and fixed with 4% paraformaldehyde for more than 48 h. The joints were decalcified in EDTA buffer for 21 days and then embedded in paraffin blocks. Joint sections were stained with H&E or safranin O-fast green. Histological changes were examined under microscope using methods modified from McKew et al.[43] as follows: grade 0 = no abnormal findings; grade 1 = synoviocyte hypertrophy, slight synovial membrane fibrosis, slight-to-mild inflammatory cell infiltrates into the synovial membrane/articular capsule and/or joint space; grade 2 = grade 1 plus mild-to-moderate inflammatory cell infiltrates, pannus formation (if present) minimal with superficial cartilage erosion; grade 3 = grade 2 plus marked inflammatory cell infiltrates and fibrosis, mild-to-severe erosion of the cartilage extending into the subchondral bone; and grade 4 = loss of joint integrity through erosion or destruction with bone remodelling, massive inflammatory cell infiltrates, fibrosis, and ankylosis.

SMILES: C=CC(=O)N[C@@H]1CCCN(c2ncnc3[nH]ccc23)C1 [RB1]
- IC50 ([1]; U2OS, read-out: IC50 (nM) JAK1): > 50000 nM
- IC50 ([1]; U2OS, read-out: IC50 (nM) JAK2): > 50000 nM
- IFN-γ-induced phosphorylation of STAT1 ([1]; U2OS cells, RB1 at concentrations over 50 μM): not affected
- Selectivity JAK1/JAK3 ([1]; U2OS, IFN-γ, pSTAT1): > 1000
- Selectivity JAK2/JAK3 ([1]; U2OS, IFN-γ, pSTAT1): > 1000
- IC50 ([2]; THP-1, read-out: IC50 (nM) JAK1): > 50000 nM
- IC50 ([2]; THP-1, read-out: IC50 (nM) JAK3): 53.1 nM
- inhibition of JAK3 phosphorylation compared with JAK1/JAK2-mediated STATs phosphorylation ([2]; IL-4 cell-based assay in THP-1 cells): over 1000 folds
- Selectivity JAK1/JAK3 ([2]; THP-1, IL-4, pSTAT6): > 1000
- selectivity for JAK3 activity over JAK1 or JAK2 ([2]; battery of cytokine-stimulated cell-based assays): > 100 fold
- percentage of Treg cells ([3]; model 0.55%): 1.13%
- Th1 cells ([3]; model 1.12%, normal […]): 0.49%
- percentage of Th17 cells ([3]; model 2.13%): 0.80%
- G-CSF-induced phosphorylation of STAT3 ([4]; HEL cells, RB1 at concentrations over 50 μM): not affected
- Selectivity JAK1/JAK3 ([4]; HEL, G-CSF, pSTAT3): > 1000
- Selectivity JAK2/JAK3 ([4]; HEL, G-CSF, pSTAT3): > 1000
- IC50 ([4]; HEL, read-out: IC50 (nM) JAK1): > 50000 nM
- IC50 ([4]; HEL, read-out: IC50 (nM) JAK2): > 50000 nM
- IC50 [5]: > 10 µM
- inhibition at 1 µM (ERBB2): 2.85%
- activity at 1 µM (KDR): 96%
- phosphorylation status of JAKs and STATs in joint tissue [6]: hypo-phosphorylation of JAK3, STAT1 and STAT3
- activity at 1 µM (MKK6): 69%
- IC50 (MKK7β; estimated): > 0.8 µM
- activity at 1 µM (MKK7β; read-out: % inhibition (1μM), 1 µM, DMSO control=100%, lower=stronger): 20%
- activity at 1 µM (IKKβ): 105%
- activity at 1 µM (Fyn): 97%
- activity at 1 µM (CDK1): 96%
- IC50 ([7]; Homo sapiens, Lymphocyte, hPBMC total lymphocytes, trigger IL-6, readout pSTAT3, JAK1): > 40 µM
- Selectivity JAK1/JAK3 ([7]; hPBMC, IL-6 pSTAT3 over IL-2 pSTAT5): >400 fold
- activity at 1 µM (CDK2): 93%
- activity at 1 µM (MST1): 83%
- activity at 1 µM (MAPK1): 85%
- H&E analysis of the major organs [8]: no significant side effects
- body weight during treatment [8]: no fluctuations
- group mean histological severity score ([8]; 10 mg/kg): 2.5
- group mean histological severity score ([8]; 30 mg/kg): 1.7
- group mean histological severity score ([8]; 100 mg/kg): 0.9
- arthritis (clinical) scores ([8]; p < 0.05 at 10 mg/kg, p < 0.001 at 30 and 60 mg/kg (so in the source)): lower arthritis scores than untreated CIA mice
